Literature values in US20140221490A1, “METHODS OF TREATING PAIN” (Hospira, Inc., priority 2011, published 2014).
Like-named read-outs stand apart in the source and are kept apart here.

Conditions: cited from earlier work; for K1:1, stability constant of 1:1 inclusion complex with HPβCD: literature reference; for Prot. bind., drug fraction bound to protein (fP): plasma; for Cmax: read-out: Cmax, maximum drug concentration in plasma, based on the drug's pharmacokinetics and administration of a normal drug dose

Row | Structure (SMILES) | Vd, volume of distribution [L/kg] | K1:1, stability constant of 1:1 inclusion complex with HPβCD | Prot. bind., drug fraction bound to protein (fP) | Cmax [µM] | K1:1, stability constant of 1:1 inclusion complex with HPβCD (listed as fenofibrate) [M⁻¹] | K1:1, stability constant of 1:1 inclusion complex with HPβCD (listed as telmisartan)
1 | NC(=O)N1c2ccccc2C=Cc2ccccc21 [Carbamazepine] | 1.4 | 630^6 M^−1 | 75% | 34 | – | –
2 | CC(C(=O)O)c1ccc(-c2ccccc2)c(F)c1 (stereo not drawn) [Flurbiprofen] | 0.12 | 7,500^26 M^−1 | 99% | 62 | – | –
3 | COC(=O)C1=C(C)NC(C)=C(C(=O)OCCN(C)Cc2ccccc2)C1c1cccc([N+](=O)[O-])c1 (stereo not drawn) [Nicardipine] | 8.3 | – | – | 0.53 | – | –
4 | CC(C)c1cccc(C(C)C)c1O [Propofol] | – | – | 99% | – | – | –
5 | CC(=O)OCC1=C(C(=O)O)N2C(=O)[C@@H](NC(=O)Cc3cccs3)[C@H]2SC1 [Cephalothin] | 0.26 | 70^11 M^−1 | 80% | 76 | – | –
6 | CCCCN1CCCCC1C(=O)Nc1c(C)cccc1C (stereo not drawn) [Bupivacaine] | 1.0 | 13^5 M^−1 | 95% | 6.9 | – | –
8 | CNCCC(Oc1ccc(C(F)(F)F)cc1)c1ccccc1 (stereo not drawn) [Fluoxetine] | 27 | – | 95% | 0.18 | – | –
9 | O=C1[C@H](CC[C@H](O)c2ccc(F)cc2)[C@@H](c2ccc(O)cc2)N1c1ccc(F)cc1 [Ezetimibe] | 1.5 | 1,300^23 M^−1 | 90% | 0.012 | – | –
10 | Cc1ncc2n1-c1ccc(Cl)cc1C(c1ccccc1F)=NC2 [Midazolam] | – | – | 97% | – | – | –
11 | CC(C)Cc1ccc(C(C)C(=O)O)cc1 (stereo not drawn) [Ibuprofen] | – | 5,000^31 M^−1 | – | 280 | – | –
12 | O=C(O)CCc1nc(-c2ccccc2)c(-c2ccccc2)o1 [Oxaprozin] | 0.15 | – | 99% | 780 | – | –
13 | O=C(N[C@H](CO)[C@H](O)c1ccc([N+](=O)[O-])cc1)C(Cl)Cl [Chloramphenicol] | 0.80 | – | 80% | 130 | – | –
14 | CN[C@H]1CC[C@@H](c2ccc(Cl)c(Cl)c2)c2ccccc21 [Sertaline] | – | – | 98% | – | – | –
15 | COc1ccc2[nH]c([S+]([O-])Cc3ncc(C)c(OC)c3C)nc2c1 (stereo not drawn) [Omeprazole] | 0.35 | 70^38 M^−1 | 96% | 4.1 | – | –
16 | Cc1nccn1CC1CCc2c(c3ccccc3n2C)C1=O (stereo not drawn) [Ondansetron] | 1.7 | 180^39 M^−1 | 75% | 0.9 | – | –
17 | Nc1nc2c(ncn2COCCO)c(=O)[nH]1 [Acyclovir] | – | 770^2 M^−1 | – | 7.2 | – | –
18 | C[C@]12CC[C@@H]3c4ccc(O)cc4CC[C@H]3[C@@H]1CC[C@@H]2O [Estradiol] | 1 | 2,000^22 M^−1 | 97% | 0.00053 | – | –
19 | CN1CC(=O)N2[C@H](c3ccc4c(c3)OCO4)c3[nH]c4ccccc4c3C[C@@H]2C1=O [Tadalafil] | 0.9 | 360^46 M^−1 | 94% | 1.3 | – | –
20 | CC(=O)Nc1ccc(O)cc1 [Acetaminophen] | 0.95 | – | 20% | 50 | – | –
21 | CCNC(=O)CCC/C=C\C[C@@H]1[C@@H](/C=C/[C@@H](O)CCc2ccccc2)[C@H](O)C[C@@H]1O [Bimatoprost] | 0.67 | 1,900^i M^−1 | 88% | 0.00019 | – | –
22 | CC(C)OC(=O)C(C)(C)Oc1ccc(C(=O)c2ccc(Cl)cc2)cc1 [Fenofibrate] | 0.9 | 2^24 M^−1 | 99% | 28 | 2 | –
23 | CNC1=Nc2ccc(Cl)cc2C(c2ccccc2)=[N+]([O-])C1 [Chlordiazepoxide] | – | – | 96% | – | – | –

Row | Structure (SMILES) | Vd, volume of distribution [L/kg] | K1:1, stability constant of 1:1 inclusion complex with HPβCD | Prot. bind., drug fraction bound to protein (fP) | Cmax [µM] | K1:1, stability constant of 1:1 inclusion complex with HPβCD (listed as fenofibrate) [M⁻¹] | K1:1, stability constant of 1:1 inclusion complex with HPβCD (listed as telmisartan)
24 | COc1ccccc1OCCNCC(O)COc1cccc2[nH]c3ccccc3c12 (stereo not drawn) [Carvedilol] | 1.7 | 580^7 M^−1 | 98% | 400 | – | –
25 | CC(=O)Nc1nnc(S(N)(=O)=O)s1 [Acetazolamide] | 0.2 | – | 95% | 160 | – | –
26 | Cc1ccc(-c2cc(C(F)(F)F)nn2-c2ccc(S(N)(=O)=O)cc2)cc1 [Celecoxib] | 6.5 | 630^10 M^−1 | 97% | 1.9 | – | –
27 | CC(=O)Oc1ccccc1C(=O)O [Acetylsalicylic acid] | 0.15 | 100^l M^−1 | 80% | 530 | – | –
28 | CCC1=C(C)CN(C(=O)NCCc2ccc(S(=O)(=O)NC(=O)N[C@H]3CC[C@H](C)CC3)cc2)C1=O [Glimepride] | – | – | 99.5% | – | – | –
29 | Clc1ccc(COC(Cn2ccnc2)c2ccc(Cl)cc2Cl)cc1 (stereo not drawn) [Econazole nitrate] | – | 13^20 M^−1 | (96) % | 5.5 | – | –
30 | COc1ccc2cc(CCC(C)=O)ccc2c1 [Nabumetone] | 0.2 | 3,000^35 M^−1 | 99% | 160 | – | –
31 | C[C@]12C=CC(=O)C=C1CC[C@@H]1[C@@H]2[C@@H](O)C[C@@]2(C)[C@H]1CC[C@]2(O)C(=O)CO [Prednisolone] | 1.5 | 2,400^42 M^−1 | 90% | 1.3 | – | –
32 | CCCc1nc2c(C)cc(-c3nc4ccccc4n3C)cc2n1Cc1ccc(-c2ccccc2C(=O)O)cc1 [Telmisartan] | 7 | 40,000^47 M^−1 | 99% | 2.8 | – | 40,000 M^−1
33 | Clc1ccc(COC(Cn2ccnc2)c2ccc(Cl)cc2Cl)c(Cl)c1 (stereo not drawn) [Miconazole] | 20 | – | 92% | 0.029 | – | –
34 | NS(=O)(=O)c1cc(C2(O)NC(=O)c3ccccc32)ccc1Cl (stereo not drawn) [Chlortalidone (chlorthalidone), chlorthalidone] | 4.0 | 115^14 M^−1 | 75% | 19 | – | –
35 | COc1ccnc(C[S+]([O-])c2nc3ccc(OC(F)F)cc3[nH]2)c1OC (stereo not drawn) [Pantoprazole] | 0.15 | 420^41 M^−1 | 98% | 6.5 | – | –
36 | CC1(C)S[C@@H]2[C@H](NC(=O)[C@H](N)c3ccc(O)cc3)C(=O)N2[C@H]1C(=O)O [Amoxicillin] | 0.3 | – | 20% | 65 | – | –
37 | CC(C(=O)O)c1cccc(C(=O)c2ccccc2)c1 (stereo not drawn) [Ketoprofen] | 0.15 | – | – | – | – | –
38 | C=CC1=C(C(=O)O)N2C(=O)[C@@H](NC(=O)/C(=N\OCC(=O)O)c3csc(N)n3)[C@H]2SC1 [Cefixime] | 1.0 | 1,400^9 M^−1 | – | 360 | – | –
39 | CCc1cccc2c3c([nH]c12)C(CC)(CC(=O)O)OCC3 (stereo not drawn) [Etodolac] | 0.4 | – | 99% | 170 | – | –
40 | O=C(CCCN1CCC(O)(c2ccc(Cl)cc2)CC1)c1ccc(F)cc1 [Haloperidol] | 18 | – | 92% | 0.088 | – | –
41 | CCCc1nn(C)c2c(=O)[nH]c(-c3cc(S(=O)(=O)N4CCN(C)CC4)ccc3OCC)nc12 [Sildenafil] | 1.5 | – | 96% | 0.93 | – | –
42 | C=CC1=C(C(=O)O)N2C(=O)[C@@H](NC(=O)/C(=N\O)c3csc(N)n3)[C@H]2SC1 [Cefdinir] | 0.35 | 59^8 M^−1 | 70% | 7.3 | – | –
43 | C[C@]12CC[C@H]3[C@@H](CCC4=CC(=O)CC[C@@]43C)[C@@H]1CC[C@@H]2O [Testosterone] | – | – | 98% | – | – | –
44 | CC(=O)O[C@]1(C(C)=O)CC[C@H]2[C@@H]3C[C@H](C)C4=CC(=O)CC[C@]4(C)[C@H]3CC[C@@]21C [Medroxyprogesterone acetate] | – | 260^33 M^−1 | 90% | 1.8 | – | –
45 | C[C@H]1C[C@H]2[C@@H]3CCC4=CC(=O)C=C[C@]4(C)[C@@]3(F)[C@@H](O)C[C@]2(C)[C@@]1(O)C(=O)CO [Cilest (betamethasone), betamethasone] | – | 3,000^16 M^−1 | 64% | 0.29 | – | –
